“Also recorded” adds a separate entry of the source.
Experiments:
NDR1 = target: T1, NDR1 (Homo sapiens, UniProt Q15208); test: KINOMEscan; type: binding; conditions: read-out: %Ctrl @ 10000nM
T1 construct: purchased DiscoverX KINOMEscan

PRKD3 = target: T2, PRKD3 (Homo sapiens, UniProt O94806); test: KINOMEscan; type: binding; conditions: read-out: %Ctrl @ 10000nM
T2 construct: purchased DiscoverX KINOMEscan

[1] = target: T3, RSK1(Kin.Dom.2-C-terminal) (Homo sapiens, UniProt Q15418); test: KINOMEscan; type: binding; conditions: read-out: %Ctrl @ 10000nM
T3 construct: RSK1(Kin.Dom.2-C-terminal); purchased DiscoverX KINOMEscan

FRK = target: T4, FRK (Homo sapiens, UniProt P42685); test: KINOMEscan; type: binding; conditions: read-out: %Ctrl @ 10000nM
T4 construct: purchased DiscoverX KINOMEscan

ERK4 = target: T5, ERK4 (Homo sapiens, UniProt P31152); test: KINOMEscan; type: binding; conditions: read-out: %Ctrl @ 10000nM
T5 construct: purchased DiscoverX KINOMEscan

C3A cells = test: Cell growth and macromolecular synthesis; type: cell-based, human; conditions: 10 μM
Description: For quantifying protein, DNA and lipid synthesis, C3A cells were first seeded at 2 × 10^6 in 60 mm-dishes and grown overnight in maintenance medium. Cells were washed once with phosphate buffered saline (PBS) and 2 ml of labeling medium plus radiochemical was added to start the 24 h incubation. […]. […] The labeling medium contained 0.1% dimethylsulfoxide (DMSO; control) or 10 μM compound in 0.1% DMSO. Cells were harvested, washed once with PBS and harvested either by trypsinization and vacuum filtration through 0.45 micron discs (Millipore, HAWP02500) for protein and DNA determinations, or by scraping and extraction in 100 μl H2O + 240 μl methanol/acetic acid 98:2 + 100 μl CHCl3 for lipid determination. Filters were washed three times with PBS, air dried and counted with a Liquid Scintillation Analyzer. Radioactivity was normalized to cell numbers and viability was >95%. Cellular lipid emulsions were separated by centrifugation and the lower phases were quantified by liquid scintillation counting and normalized to cell numbers.
(b) Pathway labeling of C3A cells treated with either DMSO or DMSO […]
[…]. labeled amino acid mixture, DNA synthesis was determined by measuring the incorporation of [3H]thymidine, and lipid synthesis was determined by labeling with [U-14C]glucose and measuring the incorporation of label into the lipid fraction as described in Methods. […]

ULK3 = target: T6, ULK3 (Homo sapiens, UniProt Q6PHR2); test: KINOMEscan; type: binding; conditions: read-out: %Ctrl @ 10000nM
T6 construct: DNA label for qPCR (T7 phage fusion or DNA tag); purchased DiscoverX scanMAX; host or cells: E. coli BL21-derived (T7 phage) or HEK-293

p38-gamma = target: T7, p38-gamma (Homo sapiens, UniProt P53778); test: KINOMEscan; type: binding; conditions: read-out: %Ctrl @ 10000nM
T7 construct: purchased DiscoverX KINOMEscan

GCN2(Kin.Dom.2,S808G) = target: T8, GCN2(Kin.Dom.2,S808G) (Homo sapiens, UniProt Q9P2K8, S808G); test: KINOMEscan; type: binding; conditions: read-out: %Ctrl @ 10000nM
T8 construct: GCN2(Kin.Dom.2,S808G); purchased DiscoverX KINOMEscan

SRPK1 = target: T9, SRPK1 (Homo sapiens, UniProt Q96SB4); test: KINOMEscan; type: binding; conditions: read-out: %Ctrl @ 10000nM
T9 construct: purchased DiscoverX KINOMEscan

EGFR(L858R,T790M) = target: T10, EGFR(L858R,T790M) (Homo sapiens, UniProt P00533, L858R/T790M); test: KINOMEscan; type: binding; conditions: read-out: %Ctrl @ 10000nM
T10 construct: purchased DiscoverX KINOMEscan

MARK4 = target: T11, MARK4 (Homo sapiens, UniProt Q96L34); test: KINOMEscan; type: binding; conditions: read-out: %Ctrl @ 10000nM
T11 construct: purchased DiscoverX KINOMEscan

[2] = target: T12, ABL1(T315I)-phosphorylated (Homo sapiens, UniProt P00519, T315I); test: KINOMEscan; type: binding; conditions: read-out: %Ctrl @ 10000nM
T12 construct: purchased DiscoverX KINOMEscan

CSNK1D = target: T13, CSNK1D (Homo sapiens, UniProt P48730); test: KINOMEscan; type: binding; conditions: read-out: %Ctrl @ 10000nM
T13 construct: purchased DiscoverX KINOMEscan

LYN = target: T14, LYN (Homo sapiens, UniProt P07948); test: KINOMEscan; type: binding; conditions: read-out: %Ctrl @ 10000nM
T14 construct: purchased DiscoverX KINOMEscan

DCAMKL2 = target: T15, DCAMKL2 (Homo sapiens, UniProt Q8N568); test: KINOMEscan; type: binding; conditions: read-out: %Ctrl @ 10000nM
T15 construct: purchased DiscoverX KINOMEscan

PIP5K1C = target: T16, PIP5K1C (Homo sapiens, UniProt O60331); test: KINOMEscan; type: binding; conditions: read-out: %Ctrl @ 10000nM
T16 construct: purchased DiscoverX KINOMEscan

PFPK5(P.falciparum) = target: T17, PFPK5(P.falciparum) (Plasmodium falciparum, UniProt P61075); test: KINOMEscan; type: binding; conditions: read-out: %Ctrl @ 10000nM
T17 construct: purchased DiscoverX KINOMEscan

CDK2 = target: T18, CDK2 (Homo sapiens, UniProt P24941); test: KINOMEscan; type: binding; conditions: read-out: %Ctrl @ 10000nM
T18 construct: purchased DiscoverX KINOMEscan

PFTK1 = target: T19, PFTK1 (Homo sapiens, UniProt O94921); test: KINOMEscan; type: binding; conditions: read-out: %Ctrl @ 10000nM
T19 construct: purchased DiscoverX KINOMEscan
T19 sequence (O94921 whole entry): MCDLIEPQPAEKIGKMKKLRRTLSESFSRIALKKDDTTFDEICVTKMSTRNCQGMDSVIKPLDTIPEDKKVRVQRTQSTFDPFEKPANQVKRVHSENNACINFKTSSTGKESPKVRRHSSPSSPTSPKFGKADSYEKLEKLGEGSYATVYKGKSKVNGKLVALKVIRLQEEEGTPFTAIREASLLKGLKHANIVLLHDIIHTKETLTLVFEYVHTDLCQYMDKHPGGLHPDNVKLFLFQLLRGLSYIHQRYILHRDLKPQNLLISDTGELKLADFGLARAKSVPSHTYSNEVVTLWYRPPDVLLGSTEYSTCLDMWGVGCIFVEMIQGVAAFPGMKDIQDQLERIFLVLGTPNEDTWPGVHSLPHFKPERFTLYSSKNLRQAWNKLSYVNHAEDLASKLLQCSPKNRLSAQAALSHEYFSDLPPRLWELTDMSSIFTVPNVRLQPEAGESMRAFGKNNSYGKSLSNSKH

PIM1 = target: T20, PIM1 (Homo sapiens, UniProt P11309); test: KINOMEscan; type: binding; conditions: read-out: %Ctrl @ 10000nM
T20 construct: purchased DiscoverX KINOMEscan

PRKCE = target: T21, PRKCE (Homo sapiens, UniProt Q02156); test: KINOMEscan; type: binding; conditions: read-out: %Ctrl @ 10000nM
T21 construct: purchased DiscoverX KINOMEscan

GRK4 = target: T22, GRK4 (Homo sapiens, UniProt P32298); test: KINOMEscan; type: binding; conditions: read-out: %Ctrl @ 10000nM
T22 construct: purchased DiscoverX KINOMEscan

CLK4 = target: T23, CLK4 (Homo sapiens, UniProt Q9HAZ1); test: KINOMEscan; type: binding; conditions: read-out: %Ctrl @ 10000nM
T23 construct: purchased DiscoverX KINOMEscan

FGFR3 = target: T24, FGFR3 (Homo sapiens, UniProt P22607); test: KINOMEscan; type: binding; conditions: read-out: %Ctrl @ 10000nM
T24 construct: purchased DiscoverX KINOMEscan

NDR2 = target: T25, NDR2 (Homo sapiens, UniProt Q9Y2H1); test: KINOMEscan; type: binding; conditions: read-out: %Ctrl @ 10000nM
T25 construct: purchased DiscoverX KINOMEscan

ULK2 = target: T26, ULK2 (Homo sapiens, UniProt Q8IYT8); test: KINOMEscan; type: binding; conditions: read-out: %Ctrl @ 10000nM
T26 construct: DNA label for qPCR (T7 phage fusion or DNA tag); purchased DiscoverX scanMAX; host or cells: E. coli BL21-derived (T7 phage) or HEK-293
T26 sequence (Q8IYT8 whole entry, the tested form may be a part): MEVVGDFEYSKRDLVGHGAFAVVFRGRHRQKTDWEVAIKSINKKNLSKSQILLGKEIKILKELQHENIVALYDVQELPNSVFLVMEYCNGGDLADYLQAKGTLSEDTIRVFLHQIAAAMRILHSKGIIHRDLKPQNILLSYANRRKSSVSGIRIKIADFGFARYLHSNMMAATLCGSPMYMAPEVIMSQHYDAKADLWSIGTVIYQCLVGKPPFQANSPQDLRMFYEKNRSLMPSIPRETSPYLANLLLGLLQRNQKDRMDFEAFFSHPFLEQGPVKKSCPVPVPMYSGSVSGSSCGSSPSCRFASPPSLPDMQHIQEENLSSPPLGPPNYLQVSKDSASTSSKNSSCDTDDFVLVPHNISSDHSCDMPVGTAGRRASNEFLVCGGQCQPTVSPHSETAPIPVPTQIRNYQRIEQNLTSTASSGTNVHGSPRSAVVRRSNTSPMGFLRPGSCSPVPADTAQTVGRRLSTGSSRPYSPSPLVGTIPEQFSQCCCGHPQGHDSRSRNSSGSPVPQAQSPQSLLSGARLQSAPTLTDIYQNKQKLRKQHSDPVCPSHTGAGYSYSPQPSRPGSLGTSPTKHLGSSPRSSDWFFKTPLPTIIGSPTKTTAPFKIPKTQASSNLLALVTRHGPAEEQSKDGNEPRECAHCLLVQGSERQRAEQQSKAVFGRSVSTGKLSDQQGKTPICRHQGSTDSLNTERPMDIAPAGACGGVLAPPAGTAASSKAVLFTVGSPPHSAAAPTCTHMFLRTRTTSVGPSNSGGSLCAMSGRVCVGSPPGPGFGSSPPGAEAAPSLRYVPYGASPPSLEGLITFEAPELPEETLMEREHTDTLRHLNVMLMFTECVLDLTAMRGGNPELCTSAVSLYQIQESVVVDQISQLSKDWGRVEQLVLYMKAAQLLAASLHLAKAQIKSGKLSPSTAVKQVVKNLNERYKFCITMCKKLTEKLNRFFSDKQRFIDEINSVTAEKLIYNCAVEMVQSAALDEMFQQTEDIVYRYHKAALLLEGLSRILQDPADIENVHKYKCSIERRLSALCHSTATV

ABL2 = target: T27, ABL2 (Homo sapiens, UniProt P42684); test: KINOMEscan; type: binding; conditions: read-out: %Ctrl @ 10000nM
T27 construct: purchased DiscoverX KINOMEscan

PAK7 = target: T28, PAK7 (Homo sapiens, UniProt Q9P286); test: KINOMEscan; type: binding; conditions: read-out: %Ctrl @ 10000nM
T28 construct: purchased DiscoverX KINOMEscan

ROS1 = target: T29, ROS1 (Homo sapiens, UniProt P08922); test: KINOMEscan; type: binding; conditions: read-out: %Ctrl @ 10000nM
T29 construct: purchased DiscoverX KINOMEscan
T29 sequence (P08922 28-2347): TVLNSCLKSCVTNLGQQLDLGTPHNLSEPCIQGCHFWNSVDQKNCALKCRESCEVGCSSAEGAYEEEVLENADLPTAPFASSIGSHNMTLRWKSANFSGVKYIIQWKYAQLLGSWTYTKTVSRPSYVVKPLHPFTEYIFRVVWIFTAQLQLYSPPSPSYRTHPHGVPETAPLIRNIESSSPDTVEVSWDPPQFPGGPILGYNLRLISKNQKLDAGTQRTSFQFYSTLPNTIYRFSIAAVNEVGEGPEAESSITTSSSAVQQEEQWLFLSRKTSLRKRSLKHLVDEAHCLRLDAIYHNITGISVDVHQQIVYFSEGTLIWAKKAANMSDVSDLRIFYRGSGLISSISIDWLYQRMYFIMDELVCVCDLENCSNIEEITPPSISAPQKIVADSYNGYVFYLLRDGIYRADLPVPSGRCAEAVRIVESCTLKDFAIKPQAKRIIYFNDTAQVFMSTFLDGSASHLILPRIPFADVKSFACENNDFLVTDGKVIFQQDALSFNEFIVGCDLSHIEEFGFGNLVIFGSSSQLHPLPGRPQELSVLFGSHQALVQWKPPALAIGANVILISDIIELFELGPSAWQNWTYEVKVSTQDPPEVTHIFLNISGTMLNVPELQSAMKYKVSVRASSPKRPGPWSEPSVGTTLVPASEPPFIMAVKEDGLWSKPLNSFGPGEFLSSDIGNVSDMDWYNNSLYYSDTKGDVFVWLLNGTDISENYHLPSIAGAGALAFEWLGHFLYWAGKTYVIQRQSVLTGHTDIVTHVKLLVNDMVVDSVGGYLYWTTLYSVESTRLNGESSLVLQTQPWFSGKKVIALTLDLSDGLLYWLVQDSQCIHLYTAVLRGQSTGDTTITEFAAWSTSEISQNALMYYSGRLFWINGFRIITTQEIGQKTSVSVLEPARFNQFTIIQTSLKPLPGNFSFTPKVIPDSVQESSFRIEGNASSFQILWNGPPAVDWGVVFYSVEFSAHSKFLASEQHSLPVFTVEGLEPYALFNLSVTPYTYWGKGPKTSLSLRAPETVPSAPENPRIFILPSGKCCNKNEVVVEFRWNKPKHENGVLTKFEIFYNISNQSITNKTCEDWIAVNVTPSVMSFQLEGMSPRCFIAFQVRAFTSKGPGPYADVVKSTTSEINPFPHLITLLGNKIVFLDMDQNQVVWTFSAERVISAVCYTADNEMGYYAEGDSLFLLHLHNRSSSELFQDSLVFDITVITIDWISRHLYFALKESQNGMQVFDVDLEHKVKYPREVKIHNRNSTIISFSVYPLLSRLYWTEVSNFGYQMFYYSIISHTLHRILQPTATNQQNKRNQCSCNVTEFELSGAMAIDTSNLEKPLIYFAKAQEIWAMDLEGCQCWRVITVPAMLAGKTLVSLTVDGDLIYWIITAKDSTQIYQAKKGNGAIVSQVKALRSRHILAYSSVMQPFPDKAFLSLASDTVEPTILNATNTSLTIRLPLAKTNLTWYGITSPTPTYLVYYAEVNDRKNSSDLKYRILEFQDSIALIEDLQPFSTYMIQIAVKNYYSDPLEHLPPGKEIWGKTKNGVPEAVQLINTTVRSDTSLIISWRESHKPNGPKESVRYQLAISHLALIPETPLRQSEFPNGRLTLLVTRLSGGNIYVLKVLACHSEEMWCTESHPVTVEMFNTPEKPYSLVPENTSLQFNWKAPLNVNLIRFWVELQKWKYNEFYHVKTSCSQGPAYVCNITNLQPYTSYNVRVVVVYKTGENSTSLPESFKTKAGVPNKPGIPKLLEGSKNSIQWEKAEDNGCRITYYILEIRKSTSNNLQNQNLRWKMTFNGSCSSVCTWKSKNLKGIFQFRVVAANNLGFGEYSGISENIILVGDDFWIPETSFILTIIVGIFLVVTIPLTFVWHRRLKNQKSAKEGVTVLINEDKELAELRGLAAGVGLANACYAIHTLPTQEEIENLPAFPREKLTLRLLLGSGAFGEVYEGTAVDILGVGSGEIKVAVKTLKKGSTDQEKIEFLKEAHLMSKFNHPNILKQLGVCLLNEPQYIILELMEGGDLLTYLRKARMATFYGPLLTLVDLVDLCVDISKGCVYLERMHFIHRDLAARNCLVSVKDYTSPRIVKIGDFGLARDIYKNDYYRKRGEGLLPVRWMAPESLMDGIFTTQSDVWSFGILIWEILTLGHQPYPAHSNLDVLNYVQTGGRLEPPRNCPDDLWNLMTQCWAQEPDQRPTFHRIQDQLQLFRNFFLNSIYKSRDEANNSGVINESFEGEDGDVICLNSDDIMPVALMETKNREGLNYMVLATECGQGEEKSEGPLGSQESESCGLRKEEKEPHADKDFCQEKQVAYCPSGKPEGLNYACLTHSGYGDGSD

SLK = target: T30, SLK (Homo sapiens, UniProt Q9H2G2); test: KINOMEscan; type: binding; conditions: read-out: %Ctrl @ 10000nM
T30 construct: purchased DiscoverX KINOMEscan
T30 sequence (Q9H2G2 whole entry): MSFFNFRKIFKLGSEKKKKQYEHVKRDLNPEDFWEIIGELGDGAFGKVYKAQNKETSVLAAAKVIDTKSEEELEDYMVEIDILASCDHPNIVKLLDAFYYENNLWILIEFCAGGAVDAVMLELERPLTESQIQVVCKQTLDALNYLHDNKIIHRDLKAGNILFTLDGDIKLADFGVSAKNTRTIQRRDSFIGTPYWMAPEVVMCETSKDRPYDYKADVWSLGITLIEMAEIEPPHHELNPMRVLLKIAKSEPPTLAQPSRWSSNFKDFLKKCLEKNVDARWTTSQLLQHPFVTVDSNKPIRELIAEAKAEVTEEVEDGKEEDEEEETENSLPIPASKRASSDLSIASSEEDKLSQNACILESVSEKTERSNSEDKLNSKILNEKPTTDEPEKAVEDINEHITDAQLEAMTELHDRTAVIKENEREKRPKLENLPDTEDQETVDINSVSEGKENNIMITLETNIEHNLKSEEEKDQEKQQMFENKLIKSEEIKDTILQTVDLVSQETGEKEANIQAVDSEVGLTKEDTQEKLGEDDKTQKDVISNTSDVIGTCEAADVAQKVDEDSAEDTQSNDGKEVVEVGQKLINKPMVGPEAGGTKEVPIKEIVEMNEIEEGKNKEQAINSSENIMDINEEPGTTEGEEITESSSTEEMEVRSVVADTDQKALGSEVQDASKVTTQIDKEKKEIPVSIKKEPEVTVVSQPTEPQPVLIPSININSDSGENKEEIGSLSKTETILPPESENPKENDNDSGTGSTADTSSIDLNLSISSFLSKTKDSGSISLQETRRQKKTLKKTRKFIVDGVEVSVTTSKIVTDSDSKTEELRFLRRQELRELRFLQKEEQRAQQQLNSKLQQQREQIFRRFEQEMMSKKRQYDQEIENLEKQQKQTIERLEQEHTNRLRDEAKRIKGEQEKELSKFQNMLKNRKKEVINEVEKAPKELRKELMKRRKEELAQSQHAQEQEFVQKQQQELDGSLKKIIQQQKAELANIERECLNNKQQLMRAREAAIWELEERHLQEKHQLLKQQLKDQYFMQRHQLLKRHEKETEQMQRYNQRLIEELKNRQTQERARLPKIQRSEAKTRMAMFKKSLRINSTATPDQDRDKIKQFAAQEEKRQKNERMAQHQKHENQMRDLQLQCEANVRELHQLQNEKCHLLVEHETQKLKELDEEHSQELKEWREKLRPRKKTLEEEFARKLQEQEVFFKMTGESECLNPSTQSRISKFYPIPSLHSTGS

PIK3CA(H1047L) = target: T31, PIK3CA(H1047L) (Homo sapiens, UniProt P42336, H1047L); test: KINOMEscan; type: binding; conditions: read-out: %Ctrl @ 10000nM
T31 construct: purchased DiscoverX KINOMEscan

FYN = target: T32, FYN (Homo sapiens, UniProt P06241); test: KINOMEscan; type: binding; conditions: read-out: %Ctrl @ 10000nM
T32 construct: purchased DiscoverX KINOMEscan

MEK3 = target: T33, MEK3 (Homo sapiens, UniProt P46734); test: KINOMEscan; type: binding; conditions: read-out: %Ctrl @ 10000nM
T33 construct: purchased DiscoverX KINOMEscan

CC(C)c1ccc(CC(=O)N2CCN(c3ccc(C#N)nn3)CC2)cc1 [PZ-2891, 6-(4-(2-(4-isopropylphenyl)acetyl)piperazin-1-yl)pyridazine-3-carbonitrile]
remaining binding at 10 µM (NDR1): 75% | remaining binding at 10 µM (PRKD3): 66% | remaining binding at 10 µM [1]: 64% | remaining binding at 10 µM (FRK): 86% | remaining binding at 10 µM (ERK4): 97% | cell viability (cell growth, synthesis of DNA, protein and lipid) (C3A cells): no differences between control and PZ-2891; also recorded: did not impact cell viability | remaining binding at 10 µM (ULK3): 89% | remaining binding at 10 µM (p38-gamma): 58% | remaining binding at 10 µM (GCN2(Kin.Dom.2,S808G)): 87% | remaining binding at 10 µM (SRPK1): 100% | remaining binding at 10 µM (EGFR(L858R,T790M)): 98% | remaining binding at 10 µM (MARK4): 81% | remaining binding at 10 µM [2]: 97% | remaining binding at 10 µM (CSNK1D): 93% | remaining binding at 10 µM (LYN): 79% | remaining binding at 10 µM (DCAMKL2): 89% | remaining binding at 10 µM (PIP5K1C): 100% | remaining binding at 10 µM (PFPK5(P.falciparum)): 99% | remaining binding at 10 µM (CDK2): 87% | remaining binding at 10 µM (PFTK1): 92% | remaining binding at 10 µM (PIM1): 93% | remaining binding at 10 µM (PRKCE): 70% | remaining binding at 10 µM (GRK4): 52% | remaining binding at 10 µM (CLK4): 98% | remaining binding at 10 µM (FGFR3): 96% | remaining binding at 10 µM (NDR2): 94% | remaining binding at 10 µM (ULK2): 86% | remaining binding at 10 µM (ABL2): 96% | remaining binding at 10 µM (PAK7): 73% | remaining binding at 10 µM (ROS1): 81% | remaining binding at 10 µM (SLK): 93% | remaining binding at 10 µM (PIK3CA(H1047L)): 69% | remaining binding at 10 µM (FYN): 87% | remaining binding at 10 µM (MEK3): 61%

Source: PMC6199309, “A therapeutic approach to pantothenate kinase associated neurodegeneration” (Nature Communications, 2018)
